# Results from PMC6132577, “Methyl group reorientation under ligand binding probed by pseudocontact shifts” (Journal of Biomolecular Nmr, 2018).
# Where two headings read alike, the source gives them in different places.
# Legend:
# [1] = target: T1, ntd-HSP90 mutant A101C/N105C tagged with CLaNP-5 (Homo sapiens, UniProt P07900, A101C/N105C); experiment: NMR methyl 13C-1H HSQC titration fitted with TITAN, 1:1 binding model; conditions: mutant 101C/105C
# T1 construct: Three double cysteine mutants of the ntd-HSP90 were designed on the surface of the protein; CLaNP-5 (chemical lanthanoid chelate with Lu3+ or Yb3+, attached to the two engineered Cys); made in house
# Protocol: (§1) Three double cysteine mutants of the ntd-HSP90 were designed on the surface of the protein, S50C/D54C, A101C/N105C and T149C/I187C (Lescanne et al. [2017]). […] The protein was produced labelled with Leu-δ1-δ2/Val-γ1-γ2-[^13CH3] and purified and tagged with CLaNP5 according to a published protocol (Lescanne et al. [2017]). CLaNP-5 was synthesized as described before (Keizers et al. [2007], [2008]).
# (§2) Ntd-HSP90 in 50 mM Tris-HCl and 50 mM NaCl buffer, pH 7.7, was titrated with 4-(2-Fluorophenyl)-2-pyrimidinamine, 1, (Fig. 1), a 189 Da known ligand of ntd-HSP90 that was kindly provided by AstraZeneca (Göteborg, Sweden). Titrations were performed with three ntd-HSP90 mutants, S50C/D54C, A101C/N105C and T149C/I187C tagged with Lu^3+-CLaNP-5 or Yb^3+-CLaNP-5. The concentrations of S50C/D54C, A101C/N105C T149C/I187C were 20, 103 and 65 µM, respectively, for both diamagnetic and paramagnetic forms of the protein. Concentrations (µM) of 1 for titrations with S50C/D54C, A101C/N105C and T149C/I187C were [0, 39, 59, 88, 132, 198, 296, 444, 667, 1000], [0, 20, 40, 121, 364, 1111] and [0, 40, 89, 200, 442, 665, 1008, 1897], respectively. The NMR sample volume was 595 µL for all samples, and dilution was neglected, because the biggest volume of ligand solution added was < 5 µL. ^13C-^1H HSQC (Palmer et al. [1991]; Kay et al. [1992]; Schleucher et al. [1994]) spectra were acquired at each titration point, on a Bruker Avance III 800 MHz spectrometer, equipped with a cryogenically cooled TXI-probe head, operating at 298 K. Spectra were processed with nmrpipe (Delaglio et al. [1995]) using the exponential EM apodization function for analysis with TITAN (Waudby et al. [2016]). A similar titration was performed with WT ntd-HSP90 observing the amide groups. Average CSP were calculated as (ΔH^2 + (ΔC/10)^2)^0.5 for methyl groups and (ΔH^2 + (ΔN/6)^2)^0.5 for amides. PCS were measured using ^1H and for calculations the geometrical average of the proton coordinates in methyl groups were used.
# (§3) The dissociation constant KD, as well as the dissociation rate constant (kOFF) were calculated with TITAN software (Waudby et al. [2016]) using a 1:1 binding model (A + B ⇆ A − B). TITAN fits both the equilibrium constant (KD) and the dissociation rate constant (kOFF) on the basis of the CSP and line broadening. A global fit of the resonances of five methyl groups (Table S1) was performed and then one at the time was taken out and the fit repeated. The WT KD was calculated using a titration performed on the ^15N labelled protein, on the basis of four amide protons (Table S1). The ranges of values obtained in this way are reported in Table 1 and provide a more realistic error range than the fit error. […] For these two mutants, a 50 µM variation of the KD results in a change of the extrapolated CSP of 0.01 ppm at most, half the error used for the further calculations. For mutant 149C/187C a KD of 50 µM was used to extrapolate the CSP.
# [2] = target: T2, ntd-HSP90 mutant S50C/D54C tagged with CLaNP-5 (Homo sapiens, UniProt P07900, D54C/S50C); experiment: as above; conditions: mutant 50C/54C
# T2 construct: Three double cysteine mutants of the ntd-HSP90 were designed on the surface of the protein; CLaNP-5 (chemical lanthanoid chelate with Lu3+ or Yb3+, attached to the two engineered Cys); made in house
# Protocol: as §1, §2, §3
# [3] = target: T3, ntd-HSP90 mutant T149C/I187C tagged with CLaNP-5 (Homo sapiens, UniProt P07900, I187C/T149C); experiment: as above; conditions: mutant 149C/187C
# T3 construct: Three double cysteine mutants of the ntd-HSP90 were designed on the surface of the protein; CLaNP-5 (chemical lanthanoid chelate with Lu3+ or Yb3+, attached to the two engineered Cys); made in house
# Protocol: as §1, §2, §3
# WT ntd-HSP90 = target: T4, WT ntd-HSP90 (Homo sapiens, UniProt P07900); experiment: NMR titration (15N-labelled protein, amide groups) fitted with TITAN, 1:1 binding model; conditions: four amide protons, range of values from repeated global fits, 298 K, pH 7.7
# T4 construct: made in house
# Protocol: Ntd-HSP90 in 50 mM Tris-HCl and 50 mM NaCl buffer, pH 7.7, was titrated with 4-(2-Fluorophenyl)-2-pyrimidinamine, 1, (Fig. 1), a 189 Da known ligand of ntd-HSP90 that was kindly provided by AstraZeneca (Göteborg, Sweden). Titrations were performed with three ntd-HSP90 mutants, S50C/D54C, A101C/N105C and T149C/I187C tagged with Lu^3+-CLaNP-5 or Yb^3+-CLaNP-5. The concentrations of S50C/D54C, A101C/N105C T149C/I187C were 20, 103 and 65 µM, respectively, for both diamagnetic and paramagnetic forms of the protein. Concentrations (µM) of 1 for titrations with S50C/D54C, A101C/N105C and T149C/I187C were [0, 39, 59, 88, 132, 198, 296, 444, 667, 1000], [0, 20, 40, 121, 364, 1111] and [0, 40, 89, 200, 442, 665, 1008, 1897], respectively. […] Average CSP were calculated as (ΔH^2 + (ΔC/10)^2)^0.5 for methyl groups and (ΔH^2 + (ΔN/6)^2)^0.5 for amides. PCS were measured using ^1H and for calculations the geometrical average of the proton coordinates in methyl groups were used.
# The dissociation constant KD, as well as the dissociation rate constant (kOFF) were calculated with TITAN software (Waudby et al. [2016]) using a 1:1 binding model (A + B ⇆ A − B). […] The WT KD was calculated using a titration performed on the ^15N labelled protein, on the basis of four amide protons (Table S1). […]
# [4] = CLaNP-5 tagged, five methyl groups, range of values from repeated global fits, 298 K, pH 7.7
# [5] = CLaNP-5 tagged, five methyl groups, range of values from repeated global fits, 298 K, pH 7.7, read-out: KD
# [6] = single value used to extrapolate CSP, read-out: KD used for the calculation of the 100% bound state CSP
smiles,measurement,setting,value
"Nc1nccc(-c2ccccc2F)n1 [compound 1, 4-(2-Fluorophenyl)-2-pyrimidinamine]",koff,[1]; [4],1080 to 1300 s⁻¹
same,Kd,[1]; [5],140 to 171 µM
same,Kd,[1]; [6],150 µM
same,koff,[2]; [4],1500 to 2300 s⁻¹
same,Kd,[2]; [5],195 to 238 µM
same,Kd,[2]; [6],200 µM
same,koff,[3]; [4],1300 to 1900 s⁻¹
same,Kd,[3]; [5],41 to 45 µM
same,Kd,"[3]; single value used to extrapolate CSP, read-out: KD used to extrapolate the CSP",50 µM
same,Kd,WT ntd-HSP90,160 to 220 µM
same,koff,WT ntd-HSP90,1400 to 1800 s⁻¹
